Assay results published in PubChem BioAssay (NCI).
Where “and” joins values, the source holds several entries; their conditions need not be identical. Equal values may be shown once.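 Interpolation was linear, between the two tested concentrations surrounding the appropriate level; five concentrations were tested over 48 hours in 96-well plates. At the GI50, growth is halved. Definition used: TGI = concentration required for complete inhibition of growth.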

Legend:
Assay in all cases: DTP human tumour cell line panel, 48 h
SN12C renal = test system: SN12C renal
MOLT-4 leukemia = test system: MOLT-4 leukemia
UACC-62 melanoma = test system: UACC-62 melanoma
HOP-92 NSCLC = test system: HOP-92 NSCLC
786-0 renal = test system: 786-0 renal
EKVX NSCLC = test system: EKVX NSCLC
OVCAR-5 ovarian = test system: OVCAR-5 ovarian
SR leukemia = test system: SR leukemia
CCRF-CEM leukemia = test system: CCRF-CEM leukemia
OVCAR-8 ovarian = test system: OVCAR-8 ovarian
OVCAR-3 ovarian = test system: OVCAR-3 ovarian
SF-539 CNS = test system: SF-539 CNS
HCT-15 colon = test system: HCT-15 colon
MCF7 breast = test system: MCF7 breast
A549 NSCLC = test system: A549 NSCLC
MDA-MB-231 breast = test system: MDA-MB-231 breast
ACHN renal = test system: ACHN renal
HT29 colon = test system: HT29 colon
DU-145 prostate = test system: DU-145 prostate
BT-549 breast = test system: BT-549 breast
HCT-116 colon = test system: HCT-116 colon
HCC-2998 colon = test system: HCC-2998 colon
SNB-75 CNS = test system: SNB-75 CNS
LOX IMVI melanoma = test system: LOX IMVI melanoma
NCI/ADR-RES ovarian = test system: NCI/ADR-RES ovarian
HL-60(TB) leukemia = test system: HL-60(TB) leukemia
SF-268 CNS = test system: SF-268 CNS
HS 578T breast = test system: HS 578T breast
HOP-62 NSCLC = test system: HOP-62 NSCLC
UACC-257 melanoma = test system: UACC-257 melanoma
IGROV1 ovarian = test system: IGROV1 ovarian
OVCAR-4 ovarian = test system: OVCAR-4 ovarian
M14 melanoma = test system: M14 melanoma
NCI-H226 lung = test system: NCI-H226 lung
SK-MEL-5 melanoma = test system: SK-MEL-5 melanoma
SK-OV-3 ovarian = test system: SK-OV-3 ovarian
NCI-H460 lung = test system: NCI-H460 lung
TK-10 renal = test system: TK-10 renal
SW-620 colon = test system: SW-620 colon
KM12 colon = test system: KM12 colon
MDA-MB-435 = test system: MDA-MB-435
SK-MEL-2 melanoma = test system: SK-MEL-2 melanoma
COLO 205 colon = test system: COLO 205 colon
RXF 393 renal = test system: RXF 393 renal
MDA-N = test system: MDA-N
SNB-19 CNS = test system: SNB-19 CNS
SF-295 CNS = test system: SF-295 CNS
SK-MEL-28 melanoma = test system: SK-MEL-28 melanoma
CAKI-1 renal = test system: CAKI-1 renal
PC-3 prostate = test system: PC-3 prostate
UO-31 renal = test system: UO-31 renal
MALME-3M melanoma = test system: MALME-3M melanoma
K-562 leukemia = test system: K-562 leukemia
A498 renal = test system: A498 renal

Structure (SMILES): Cc1nc2ccc(Br)cc2c(=O)n1-c1ccc(NC2OCC(O)C(O)C2O)cc1 (stereo not drawn)
- GI50 (SN12C renal): 30 µM and > 100 µM
- TGI (SN12C renal): > 100 µM
- GI50 (MOLT-4 leukemia): 19.6 µM and 71.2 µM
- TGI (MOLT-4 leukemia): > 100 µM
- GI50 (UACC-62 melanoma): 30.7 µM and > 100 µM
- TGI (UACC-62 melanoma): > 100 µM
- GI50 (HOP-92 NSCLC): 22.4 µM and > 100 µM
- TGI (HOP-92 NSCLC): 64.2 µM and > 100 µM
- GI50 (786-0 renal): 19.1 µM and > 100 µM
- TGI (786-0 renal): 42.2 µM and > 100 µM
- TGI (EKVX NSCLC): > 100 µM
- TGI (OVCAR-5 ovarian): > 100 µM
- GI50 (SR leukemia): 25 µM and 61 µM
- TGI (SR leukemia): 59.7 µM and > 100 µM
- GI50 (CCRF-CEM leukemia): 3.8 µM and 34.9 µM
- TGI (CCRF-CEM leukemia): 38 µM and > 100 µM
- GI50 (OVCAR-8 ovarian): 43.5 µM and > 100 µM
- TGI (OVCAR-8 ovarian): > 100 µM
- GI50 (OVCAR-3 ovarian): 34.8 µM and > 100 µM
- TGI (OVCAR-3 ovarian): > 100 µM
- GI50 (SF-539 CNS): 18.3 µM and > 100 µM
- TGI (SF-539 CNS): 37.2 µM and > 100 µM
- GI50 (HCT-15 colon): 19.7 µM and > 100 µM
- TGI (HCT-15 colon): 43.6 µM and > 100 µM
- GI50 (MCF7 breast): 20.8 µM and > 100 µM
- TGI (MCF7 breast): 51.9 µM and > 100 µM
- TGI (A549 NSCLC): > 100 µM
- GI50 (MDA-MB-231 breast): 47.6 µM and > 100 µM
- TGI (MDA-MB-231 breast): > 100 µM
- GI50 (ACHN renal): 35.6 µM and > 100 µM
- TGI (ACHN renal): > 100 µM
- GI50 (HT29 colon): 20.7 µM and > 100 µM
- TGI (HT29 colon): 48.7 µM and > 100 µM
- TGI (DU-145 prostate): > 100 µM
- GI50 (BT-549 breast): 24.2 µM and 99.5 µM
- TGI (BT-549 breast): 53.9 µM and > 100 µM
- GI50 (HCT-116 colon): 17.7 µM and 79.2 µM
- TGI (HCT-116 colon): 53.7 µM and > 100 µM
- GI50 (HCC-2998 colon): 19.1 µM and > 100 µM
- TGI (HCC-2998 colon): 40.4 µM and > 100 µM
- GI50 (SNB-75 CNS): 38.7 µM and 92.3 µM
- TGI (SNB-75 CNS): > 100 µM
- GI50 (LOX IMVI melanoma): 15.3 µM and > 100 µM
- TGI (LOX IMVI melanoma): 33.8 µM and > 100 µM
- GI50 (NCI/ADR-RES ovarian): 41.9 µM and > 100 µM
- TGI (NCI/ADR-RES ovarian): > 100 µM
- GI50 (HL-60(TB) leukemia): 34.9 µM and 73.1 µM
- TGI (HL-60(TB) leukemia): > 100 µM
- TGI (SF-268 CNS): > 100 µM
- TGI (HS 578T breast): > 100 µM
- TGI (HOP-62 NSCLC): > 100 µM
- GI50 (UACC-257 melanoma): > 100 µM
- TGI (UACC-257 melanoma): > 100 µM
- TGI (IGROV1 ovarian): > 100 µM
- TGI (OVCAR-4 ovarian): > 100 µM
- GI50 (M14 melanoma): 17.9 µM and > 100 µM
- TGI (M14 melanoma): 35.6 µM and > 100 µM
- TGI (NCI-H226 lung): > 100 µM
- TGI (SK-MEL-5 melanoma): > 100 µM
- GI50 (SK-OV-3 ovarian): > 100 µM
- TGI (SK-OV-3 ovarian): > 100 µM
- GI50 (NCI-H460 lung): 47.2 µM and > 100 µM
- TGI (NCI-H460 lung): > 100 µM
- TGI (TK-10 renal): > 100 µM
- GI50 (SW-620 colon): 17.8 µM and > 100 µM
- TGI (SW-620 colon): 47 µM and > 100 µM
- GI50 (KM12 colon): 26.3 µM and > 100 µM
- TGI (KM12 colon): 68.4 µM and > 100 µM
- GI50 (MDA-MB-435): 36 µM and > 100 µM
- TGI (MDA-MB-435): > 100 µM
- GI50 (SK-MEL-2 melanoma): 25.6 µM and > 100 µM
- TGI (SK-MEL-2 melanoma): 66.3 µM and > 100 µM
- GI50 (COLO 205 colon): > 100 µM
- TGI (COLO 205 colon): > 100 µM
- GI50 (RXF 393 renal): 32.1 µM and > 100 µM
- TGI (RXF 393 renal): 51.4 µM and > 100 µM
- GI50 (MDA-N): 43.9 µM and > 100 µM
- TGI (MDA-N): > 100 µM
- TGI (SNB-19 CNS): > 100 µM
- TGI (SF-295 CNS): > 100 µM
- GI50 (SK-MEL-28 melanoma): 26.2 µM and > 100 µM
- TGI (SK-MEL-28 melanoma): 66.9 µM and > 100 µM
- GI50 (CAKI-1 renal): 20.3 µM and > 100 µM
- TGI (CAKI-1 renal): 44.1 µM and > 100 µM
- GI50 (PC-3 prostate): 18.5 µM and > 100 µM
- TGI (PC-3 prostate): 86.9 µM and > 100 µM
- GI50 (UO-31 renal): 35.8 µM and > 100 µM
- TGI (UO-31 renal): > 100 µM
- GI50 (MALME-3M melanoma): 23.2 µM and > 100 µM
- TGI (MALME-3M melanoma): 65 µM and > 100 µM
- GI50 (K-562 leukemia): 17.3 µM and > 100 µM
- TGI (K-562 leukemia): > 100 µM
- TGI (A498 renal): > 100 µM
